In ChEMBL document CHEMBL1201862, “PubChem BioAssay data set” (2004):
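All cell lines were grown in 96-well plates and treated with compound for 48 hours. At the GI50, growth is halved.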 Calls of active or inactive are those of the source. Rule as the data show it: active = GI50 up to about 1.1 µM and inactive = higher.

Columns and labels:
Test in all cases: DTP human tumour cell line panel, 48 h
MCF7 = system: MCF7
MDA-MB-435 = system: MDA-MB-435
PC-3 = system: PC-3
NCI/ADR-RES = system: NCI/ADR-RES
UACC-62 = system: UACC-62
KM12 = system: KM12
HCT-116 = system: HCT-116
MDA-MB-231 = system: MDA-MB-231
SK-MEL-28 = system: SK-MEL-28
HCC 2998 = system: HCC 2998
OVCAR-5 = system: OVCAR-5
SK-MEL-5 = system: SK-MEL-5
Hs-578T = system: Hs-578T
NCI-H522 = system: NCI-H522
OVCAR-3 = system: OVCAR-3
HCT-15 = system: HCT-15
HT-29 = system: HT-29
OVCAR-8 = system: OVCAR-8
CAKI-1 = system: CAKI-1
SK-OV-3 = system: SK-OV-3
COLO 205 = system: COLO 205
SR = system: SR
EKVX = system: EKVX
SN12C = system: SN12C
786-0 = system: 786-0
K562 = system: K562
RPMI-8226 = system: RPMI-8226
HL-60 = system: HL-60
IGROV-1 = system: IGROV-1
RXF 393 = system: RXF 393
UO-31 = system: UO-31
SF-295 = system: SF-295
DU-145 = system: DU-145
SNB-19 = system: SNB-19
U-251 = system: U-251
BT-549 = system: BT-549
MDA-N = system: MDA-N
NCI-H460 = system: NCI-H460
A549 = system: A549
NCI-H226 = system: NCI-H226
T47D = system: T47D
TK-10 = system: TK-10
A498 = system: A498
OVCAR-4 = system: OVCAR-4
SF-268 = system: SF-268
LOX IMVI = system: LOX IMVI
UACC-257 = system: UACC-257
ACHN = system: ACHN
HOP-92 = system: HOP-92
HOP-62 = system: HOP-62
M14 = system: M14
NCI-H23 = system: NCI-H23
SW-620 = system: SW-620
Malme-3M = system: Malme-3M
SNB-75 = system: SNB-75
SK-MEL-2 = system: SK-MEL-2

OCC1CCCC(n2cnc3c(S)ncnc32)O1 (stereo unspecified)
GI50 (MCF7): > 100 µM (inactive)
GI50 (MDA-MB-435): > 100 µM (inactive)
GI50 (PC-3): > 100 µM (inactive)
GI50 (NCI/ADR-RES): > 100 µM (inactive)
GI50 (UACC-62): > 100 µM (inactive)
GI50 (KM12): > 100 µM (inactive)
GI50 (HCT-116): > 100 µM (inactive)
GI50 (MDA-MB-231): > 100 µM (inactive)
GI50 (SK-MEL-28): > 100 µM (inactive)
GI50 (HCC 2998): > 100 µM (inactive)
GI50 (OVCAR-5): > 100 µM (inactive)
GI50 (SK-MEL-5): > 100 µM (inactive)
GI50 (Hs-578T): > 100 µM (inactive)
GI50 (NCI-H522): > 100 µM (inactive)
GI50 (OVCAR-3): > 100 µM (inactive)
GI50 (HCT-15): > 100 µM
GI50 (HT-29): > 100 µM (inactive)
GI50 (OVCAR-8): > 100 µM (inactive)
GI50 (CAKI-1): > 100 µM (inactive)
GI50 (SK-OV-3): > 100 µM (inactive)
GI50 (COLO 205): > 100 µM (inactive)
GI50 (SR): > 100 µM (inactive)
GI50 (EKVX): > 100 µM (inactive)
GI50 (SN12C): > 100 µM (inactive)
GI50 (786-0): > 100 µM (inactive)
GI50 (K562): > 100 µM (inactive)
GI50 (RPMI-8226): > 100 µM (inactive)
GI50 (HL-60): 0.0252 µM (active)
GI50 (IGROV-1): > 100 µM (inactive)
GI50 (RXF 393): > 100 µM (inactive)
GI50 (UO-31): > 100 µM (inactive)
GI50 (SF-295): > 100 µM (inactive)
GI50 (DU-145): > 100 µM (inactive)
GI50 (SNB-19): > 100 µM (inactive)
GI50 (U-251): > 100 µM (inactive)
GI50 (BT-549): > 100 µM (inactive)
GI50 (MDA-N): > 100 µM (inactive)
GI50 (NCI-H460): > 100 µM (inactive)
GI50 (A549): > 100 µM (inactive)
GI50 (NCI-H226): > 100 µM (inactive)
GI50 (T47D): > 100 µM (inactive)
GI50 (TK-10): > 100 µM (inactive)
GI50 (A498): > 100 µM (inactive)
GI50 (OVCAR-4): > 100 µM (inactive)
GI50 (SF-268): > 100 µM (inactive)
GI50 (LOX IMVI): > 100 µM (inactive)
GI50 (UACC-257): > 100 µM (inactive)
GI50 (ACHN): > 100 µM (inactive)
GI50 (HOP-92): > 100 µM (inactive)
GI50 (HOP-62): > 100 µM (inactive)
GI50 (M14): > 100 µM (inactive)
GI50 (NCI-H23): > 100 µM (inactive)
GI50 (SW-620): > 100 µM (inactive)
GI50 (Malme-3M): > 100 µM (inactive)
GI50 (SNB-75): > 100 µM (inactive)
GI50 (SK-MEL-2): > 100 µM (inactive)
